Reference: patent publication US20200157195A1, “14-3-3 Antagonists for the Prevention and Treatment of Arthritis” (THE UNIVERSITY OF BRITISH COLUMBIA, priority 2007, published 2020)
The star is where a group is joined. Biotin = O=C1N[C@H]2[C@H](CS[C@H]2CCCCC(=O)*)N1

Columns and labels:
[1] = tested on: MMP-1 expression in dermal fibroblasts induced by extracellular 14-3-3 protein; test: MMP-1 expression in dermal fibroblasts treated with KLCCM after R-18 pull-down of 14-3-3 proteins; assay type: cell-based
Description: The KLCCM used in these experiments was taken from day 28 of cell transdifferentiation due to their high capacity of inducing MMP-1 expression in dermal fibroblasts (data not shown). […] As negative control, dermal fibroblasts treated with medium that was not conditioned (DMEM (49%), KSFM (49%) plus 2% FBS) were used (“Pull-down”−).

[2] = tested on: association of 14-3-3 proteins with Raf-1; details: Wang et al. 1999; cited from earlier work

With “Biotin-PHCVPRDLSWLDLEANMCLP-OH (cysteine pairing not given here) [biotinylated R-18]” the “reduction of MMP-1 expression” value ([1]; pre-treatment of KLCCM with biotinylated R-18 and avidin sepharose (pull-down), dermal fibroblasts, MMP-1/β-actin densitometry) was 68.8%.

For “R-18: small peptide 14-3-3 antagonist (Wang et al. 1999) capable of blocking the association of 14-3-3 proteins with Raf-1 (Biotin-PHCVPRDLSWLDLEANMCLP-OH; not fully specified; cysteine pairing not given here)”, the “inhibition of induction of MMP-1 expression by extracellular 14-3-3 protein (in words)” value ([1]; FIG. 5 legend) is given as “inhibits induction of MMP-1 expression” and the “blocking the association of 14-3-3 proteins with Raf-1” value [2] is given as “capable of blocking the association of 14-3-3 proteins with Raf-1”.
